According to a melting point compilation (Tetko et al.):

Row | melting point [°C] | SMILES
1 | 37 to 38 | O=[N+]([O-])c1ccccc1OCCCBr
2 | 48 to 55 | C=Cc1ccc(OCc2ccccc2)c(OC)c1
3 | 58 | COC(=O)c1cccc(C=O)c1
4 | 96 to 98 | N#Cc1cc([N+](=O)[O-])ccc1-n1cccc1
5 | 210 | O=[N+]([O-])c1ccc2[nH]ncc2c1
6 | 140 | CCCC(=O)Nc1ccc(O)cc1
7 | 236 | CC(=O)Nc1ccc(/C=C/c2ccc([N+](=O)[O-])cc2)c([N+](=O)[O-])c1
8 | 146 to 150 | Cc1ccc([N+](=O)[O-])c(N)n1
9 | 150 to 151 | CSc1nc(=O)n2ccccc2n1
10 | 109 | Cc1cccc2ccoc12
11 | 188 to 189 | Cc1cc(C)c(CC(=O)c2oc3ccccc3c2N)c(C)c1
12 | 110 to 111 | Cc1ccc(C(=O)OC2CC(C#N)OC2OC(=O)c2ccc(C)cc2)cc1 (stereo not given)
13 | 285 to 286 | O=[N+]([O-])c1ccc(-c2cn3c(n2)sc2ccccc23)cc1
14 | 230 | O=C(O)c1ccc(-c2csnn2)cc1
15 | 121 to 122 | N#Cc1csc2ccc(Cl)cc12
16 | 47.5 | O=C(CCCl)c1ccc(F)cc1
17 | 117 | O=C1OC(c2ccccc2)c2ccccc21 (stereo not given)
18 | 200 to 203 | O=C(O)C=CC(=O)Nc1ccc(Cl)cc1
19 | 34 | CCCCCc1ccc(-c2ccc(C#N)cc2)cc1
20 | 240 | N#C/C(=N/Nc1ccc(Cl)cc1)c1nc(-c2ccc(Cl)cc2)cs1
21 | 107 | c1ccc2c(c1)cnc1ccccc12
22 | 134 to 136 | CC(C)(C)c1ccc(Oc2ccc([N+](=O)[O-])cc2C=O)cc1
23 | 240 to 243 | NC(=O)c1cc(O)c(O)c(O)c1
24 | 186 | O=[N+]([O-])c1ccc(O)c(-c2cc([N+](=O)[O-])ccc2O)c1
25 | 102 | CC(=O)Oc1cccc(N=[N+]([O-])c2cccc(OC(C)=O)c2)c1

Row | melting point [°C] | SMILES
26 | 83 to 85 | Brc1ccc(-c2ccccc2)s1
27 | 173 to 175 | CC(=O)CN1C(=O)N2CCc3ccccc3C2(c2ccc(Cl)cc2)C1=O (stereo not given)
28 | 154 | O=C(O)Cc1ccc([N+](=O)[O-])cc1
29 | 140 | Nc1ccc(C(=O)O)c(N)c1
30 | 41 | O=[N+]([O-])c1cccc(F)c1
31 | 25 | COC(=O)CC(=O)c1ccccc1Cl
32 | 145 | CN(C)c1ccc(CNC(=O)c2cc([N+](=O)[O-])cc([N+](=O)[O-])c2)cc1
33 | 98 | Nc1cc(Cl)ccc1S
34 | 14 | COC(=O)c1ccc(C(F)(F)F)cc1
35 | 82 | CCc1ssc(=O)c1-c1ccccc1
36 | 235 | CC(=O)Nc1ccc2c(NC(C)=O)c(O)ccc2c1
37 | 32 | FC(F)(F)c1ccc2c(c1)NCCC2
38 | 143 to 147 | CC(=O)c1cc(O)cc(O)c1
39 | 70 | CCc1nnc(-c2ccccn2)nc1CC
40 | 63 | CSc1ccc2ccccc2c1
41 | 162 | O=C(/C(=N/Nc1ccc(Cl)cc1Cl)S(=O)(=O)c1ccccc1)c1cccc2ccccc12
42 | 129 to 131 | COC(=O)C(C#N)=C(NC(=O)c1ccccc1)SC
43 | 92 | CCOC(=O)c1c(-c2ccccc2)csc1N
44 | 62 | Fc1cc(Br)c(F)cc1Br
45 | 19 | CCCCc1cc(C)ccc1O
46 | 144 | CS(=O)(=O)Nc1ccc([N+](=O)[O-])cc1Oc1ccccc1
47 | 47.5 to 55.5 | O=C(Oc1c(F)c(F)c(F)c(F)c1F)c1ccncc1
48 | 39 | Clc1nsc2ccccc12
49 | 56 | Nc1ccc(C(F)(F)F)c(F)c1
50 | 126 to 128 | O=C(O)CCn1c(=O)oc2ccccc21

The remaining lines, values behind:

Row | SMILES | melting point [°C]
51 | CCOC(=O)/C(=N\Nc1ccc(C)cc1C)C(=O)C(F)(F)F | 139
52 | CCC(=O)C1(c2cccc(O)c2)CCN(C)CC1 | 156
53 | CC(C)N(C(=O)SCC(Cl)=C(Cl)Cl)C(C)C | 29
54 | ClCCOCOCCCl | -32
55 | O=C(CC(=O)C(F)(F)F)c1ccccc1 | 39
56 | COc1ccc(-c2ccc(S(=O)(=O)NC(CCSC)C(=O)O)cc2)cc1 (stereo not given) | 174
57 | CC(=O)Oc1ccc(C#N)cc1 | 57
58 | CCC1C(C=NO)=NC(C)(C)N1O (stereo not given) | 163 to 164
59 | CCCN(C(C)=O)c1ccccc1 | 49
60 | CC(C=Cc1ccccc1)c1ccccc1 (stereo not given) | 47.5
61 | CCCNCCC | -63
62 | COc1cc(OC)c(C(=O)/C=C/c2cc3c(cc2[N+](=O)[O-])OCO3)c(OC)c1 | 224
63 | CC(C)(C)c1ccc(C2CCC3(CC2)Cc2ccc(C(=O)Nc4ccccc4OCCCC(=O)O)cc2C3)cc1 (stereo not given) | 150
64 | Nc1ncnc2[nH]ncc12 | 325
65 | CC(C)(O)CCl | -20
66 | Cc1ccc(S(=O)(=O)OCCCCCCOS(=O)(=O)c2ccc(C)cc2)cc1 | 70.5 to 73
67 | CC(C(O)c1ccc(O)cc1)N1CCC(Cc2ccccc2)CC1 (stereo not given) | 114
68 | O=C(O)c1cccnc1C(=O)O | 228
69 | CC12CCC(C(=O)OC1=O)C2(C)C (stereo not given) | 221
70 | COc1nccnc1N(C(C)=O)S(=O)(=O)c1ccc(N)cc1 | 199
71 | O=C1C(c2ccc(C3=[N+]([O-])c4cc([N+](=O)[O-])ccc4C3=O)cc2)=[N+]([O-])c2cc([N+](=O)[O-])ccc21 | 294
72 | O=C(O)C(Br)Br | 49
73 | O=C(NCNN(CNC(=O)c1ccccc1)CNC(=O)c1ccccc1)c1ccccc1 | 123 to 125
74 | COc1cc2c(cc1OCc1ccccc1)C(C)N(C)CC2 (stereo not given) | 82
75 | Fc1c(CBr)cccc1C(F)(F)F | 48

Row | SMILES | melting point [°C]
76 | CC(C)c1ccc(NC(=O)N(C)C)cc1 | 158
77 | O=C1CC2CCC1C2 (stereo not given) | 95
78 | CCOC(=O)c1cnc2cc(OCC(C)C)c(OCC(C)C)cc2c1O | 290
79 | O=C(NC(=O)c1c(F)cccc1F)Nc1ccc(Cl)cc1 | 239
80 | CCOC(=O)c1c(C)cc(O)cc1O | 132
81 | Cc1n[nH]c(C)c1C | 137 to 139
82 | CCN(CC)c1ccc2cc(C(=O)c3cc4ccc(N(CC)CC)cc4oc3=O)c(=O)oc2c1 | 214
83 | O=C(NC(=O)c1c(F)cccc1F)Nc1ccc(CON=C(c2ccc(Cl)cc2)C2CC2)cc1 | 144
84 | CCOC(=O)CNc1cc(Cl)c([N+](=O)[O-])cc1[N+](=O)[O-] | 146
85 | CN(C)c1ccc(C=C2N=C(c3ccccc3)OC2=O)cc1 | 204 to 205
86 | C1=CC2CC1[C@@H](P(c1ccccc1)c1ccccc1)[C@@H]2P(c1ccccc1)c1ccccc1 | 120 to 125
87 | CCCCCCCCCCCCCC(CCCCCCCCCC)CCCCCCCCCC | 10.8
88 | N#CC1CC2C=CC1C2 (stereo not given) | 13
89 | O=C(O)CNCCNCC(=O)O | 224 to 225
90 | C[C@@]12CCC[C@@]1(O)[C@@H]1CC=C3CC(O)CC[C@]3(C)[C@H]1CC2 (stereo not given in full) | 201 to 203
91 | CNC(=O)Oc1cccc(C)c1 | 77.7
92 | Cc1ccc(NC(=O)NC(C)(C)c2ccccc2)cc1 | 203
93 | Nc1ccc(C=Cc2ccc(N)cc2OS(=O)(=O)c2ccccc2)c(OS(=O)(=O)c2ccccc2)c1 | 250
94 | O/N=C(/CC(NO)c1ccccc1)c1ccccc1 (stereo not given) | 141
95 | O=C1OC(c2ccccc2)(c2ccccc2)c2ccccc21 | 120
96 | CN(C)c1ccc(C2C3=C(CC(C)(C)CC3=O)Nc3c2ccc2ccccc32)cc1 (stereo not given) | 271
97 | CC(C)c1cc(C(C)C)c(S(N)(=O)=O)c(C(C)C)c1 | 115
98 | C[C@@]12CCC=C1[C@@H]1CC[C@H]3CC(=O)CC[C@]3(C)[C@H]1CC2 | 115 to 117
99 | O=CC(C=O)c1cnccn1 | 202 to 207
100 | OCc1cccc(N2CCOCC2)c1 | 51 to 54

Row | SMILES | melting point [°C]
101 | CCCCCCCCCCC(Br)C(=O)O (stereo not given) | 32
102 | O=[N+]([O-])c1ccc(I)c([N+](=O)[O-])c1 | 89
103 | CCCCCCCC(=O)c1ccccc1 | 22.8
104 | CSc1[nH]nc(N)c1C#N | 190
105 | CCCCCCCCCCCCCC(C)CC (stereo not given) | -15
106 | NC(=O)C(=O)NC(c1ccccc1)C1(c2ccccc2)OCCO1 (stereo not given) | 203
107 | O=C(CCCCC(=O)NCCCC(=O)ON1C(=O)CCC1=O)NCCCC(=O)ON1C(=O)CCC1=O | 145
108 | N=C(N)NOCCC(N)C(=O)O (stereo not given) | 184
109 | CC(C)(C)C(=O)OCC(N)=S | 84 to 85
110 | C=CCOOC(C)(C)c1ccccc1 | 60
111 | C#CC(C)N(C(=O)CCl)c1ccccc1 (stereo not given) | 43.5
112 | NC(CO)Cc1ccccc1 (stereo not given) | 91.5
113 | CCOC(=O)CSc1ncc(C(=O)OC)n1C | 35 to 36
114 | COc1ccc(C(O)(c2cc(OC)c(OC)c(OC)c2)c2ccc(OC)cc2OC)c(OC)c1 | 109
115 | NC(=O)CN1Cc2ccccc2OC1=O | 203
116 | C1=CCCC=CCC1 | -56.4
117 | CC(NC(=O)COCCN1C(=O)c2ccccc2C1=O)C(=O)NC(CCC(=O)O)C(=O)O (stereo not given) | 192 to 195
118 | O=C1OC(Cl)c2ccccc21 (stereo not given) | 60
119 | CC1=C(C)C([Si](C)(C)C2C(C)=C(C)C(C)=C2C)C(C)=C1C | 65 to 68
120 | CC(C)c1cccc(C(C)C)c1O | 18
121 | c1ccc(-c2nccnc2-c2ccccc2)cc1 | 121
122 | C1COCO1 | -26
123 | CN(C)P(=O)(N(C)C)N(C)C | 7.2
124 | CN1CCC23c4c5ccc(O)c4OC2C(=O)CCC3C1C5 (stereo not given) | 266
125 | CSc1nc2[nH]c(Cc3ccccc3)nc(=O)c2n1C | 286
